A value given as a limit tells only on which side of the number the result lay.

For orientation: melting point means the temperature, or range, at which the solid turns liquid. With `O=C(O)Cc1cccc(Cc2nc3c(F)c(F)cc(F)c3s2)c1`, the melting point lay within 132 to 134 °C.

On to `CCCCCC#CCC#CCC#CCC#CCO`, for which the melting point lay in the range of 54 to 56 °C. In the case of `Cc1cccc2c1ccc1c(O)cc(=O)oc12`, the melting point lay within 223 to 225 °C. As for `CCOCCn1nc(-c2cc(C(C)(C)C)c(O)c(C(C)(C)C)c2)c2cccnc21`, the melting point fell in the range of 86 to 88 °C. As to `CCOC(=O)c1c(C)cc(C(=O)O)c(NC=O)c1C`, the melting point fell in the range of 144 to 146 °C. `CCOC(=O)Cc1ccc(CCN2CCN(C(=O)C=Cc3cc(C(C)(C)C)c(O)c(C(C)(C)C)c3)CC2)cc1` returned a melting point of 111 to 113 °C. Next, `CCOCc1nc2c(N)nc3cc(-c4cccnc4)cnc3c2n1CC(C)C`: 177 to 179 °C; `COC(=O)C1Cc2c(n(C)c3ccccc23)CN1C(=S)SC` (centres undefined): 170 to 171 °C; `O=C(O)C1(c2ccc(Nc3nc(N4CCCC4)nc4c3CCC4)cc2)CCC1`: 245 to 247 °C.

For `Nc1ncnc2c1c(-c1ccc(F)cc1)cn2-c1ccccc1`, the melting point was in the range of 202 to 203 °C. `O=C1CCC2(CC1)Cc1ccccc1C2`: the melting point was in the range of 91 to 94 °C.

As for `COc1cc2c(cc1OC)CN(CCCc1cccc(NC(=O)c3cccc4c(=O)c5cccc(F)c5[nH]c34)c1)CC2`, the melting point was 128 °C. In the case of `Cc1cc(Cl)ccc1NC(=S)N(C)OCC(=O)O`, the melting point lay within 110 to 113 °C.

Compound `CC(C)=C(C#N)C(=O)NCc1ccc(Cl)c(Cl)c1` showed a melting point of 131 to 132 °C. `Cc1c(NC(=O)CC(C)(C)C)cc2c(c1C)OC(C)(C)C2c1ccco1` (centres undefined) registered a melting point of 126 to 127 °C.

Turning to `CN1CCOC(=NO)C1=O`, the melting point lay in the range of 199 to 201 °C. Regarding `CCOC(=O)c1cc2nc(C(F)(F)F)ccc2n1Cc1ccncc1`, the melting point lay within 130 to 131 °C.

`Cc1oc(-c2ccccc2)nc1CCOc1ccc(CC(C(=O)O)c2ccccc2)cc1` (centres undefined) displayed a melting point of 124 to 125 °C. In turn, `CCOC(=O)Nc1cc(C(C)=O)c2c(c1)N(NC(C)c1ccccc1)c1ccccc1CC2` (centres undefined) had a melting point of 144 to 152 °C.

Compound `Nc1cc(Cl)nc(OCc2cccc3ccccc23)n1` came in with a melting point of 160 to 161 °C. As to `CCCCCS(=O)(=O)NC(=O)/C=C/c1cc(C(C)C)nn1Cc1ccc(Cl)cc1Cl`, the melting point lay within 149 to 151 °C. The compound `CCCC(NS(=O)(=O)c1ccc(Cl)cc1)C(=S)Nc1ccc(CC(=O)O)cc1` (racemic) had a melting point of 170 to 177 °C. Next, `Nc1ccc(F)cc1-c1ccc(Cl)c(Cl)c1`: 58 °C. With `Fc1cc2ccc(CBr)nc2cc1F` the figure was 113 to 115 °C; with `O=[N+]([O-])c1ccc2c(c1)ncn2-c1cccc(-c2nccs2)c1`, 251 to 260 °C.

With `N#Cc1ccc2cc(S)ccc2c1`, the melting point fell in the range of 113 to 115 °C.

Compound `O=C1CCC(c2ccc(Cl)c([N+](=O)[O-])c2)=NN1` yielded a melting point of 190 to 193 °C. As for `COCCCn1nnnc1-c1cc(-c2cccc(C(=O)O)c2)c(OCc2ccccc2)cc1OCc1ccccc1`, the melting point is 59 to 63 °C. For `CCCC(NOCC)=C1C(=O)CC(c2cc3ccccc3s2)CC1=O` (centres undefined), the melting point is 73 to 76 °C.

In the case of `CCOC(=O)Cn1c(=O)sc2ccc(C3=NNC(=O)NC3C)cc21` (centres undefined), the melting point was 200 to 202 °C. Turning to `COc1cc(SC)ccc1O`, the melting point fell in the range of 47 to 49 °C. With `COc1ncc(C(F)(F)F)cc1-c1cccn2nc(Cl)nc12` the figure was 183 to 185 °C; with `O=C(O)c1cc(Cl)c(Cl)c(S(=O)(=O)Cl)c1`, 203 °C.

In the case of `O=C(NC1=NN(c2ccc(Cl)c(Cl)c2)CC1)c1ccc(Cl)cc1`, the melting point fell in the range of 177 to 178 °C. In turn, `CS(=O)(=O)c1ccc(-c2oc(C(=O)O)cc(=O)c2Oc2ccc(Cl)cc2)cc1` had a melting point of 263 °C.

For `CC(C)c1cc(C(C)(C)CCP(=O)(O)O)cc(C(C)C)c1O`, the melting point was 179 to 182 °C. Take `COCCOc1cc(Oc2ccc(C(F)(F)F)cn2)ccc1CCCOc1cc(CCC(=O)O)n(-c2ccccc2)n1`: the melting point was 83 to 85 °C. Compound `Cc1nc(-c2ccc3c(c2)COC(N[C@@H]2CCc4ccccc42)=N3)no1` gave a melting point of 138 °C. Regarding `CC(=O)Nc1ccccc1C(=O)NC(=O)Nc1ccc(Oc2ncc(Br)cn2)c(C)c1`, the melting point is 186 to 191 °C. Compound `CC1CCc2ncc(C#N)c(=O)n21` (centres undefined) yielded a melting point of 148 °C. `CC(C)(C)OC(=O)NC[C@H]1CN(c2ccc3c(c2)CN(C(=O)OCc2ccccc2)CC3)C(=O)O1` displayed a melting point of 135 to 137 °C. With `Cc1sc2c(Br)c3ccccc3c(-c3ccc(OS(=O)(=O)c4scc(C(=O)O)c4O)c(C4CCCC4)c3)c2c1C` the figure was more than 230 °C; with `CC1=C(C(=O)OC(C)C)C(c2cccc([N+](=O)[O-])c2)N(C(=O)N(C)C)C(=O)N1` (centres undefined), 165 to 166 °C.

Consider `CC(=O)SC(Cc1ccc(F)cc1)C(=O)O` (centres undefined), for which the melting point was 44 to 46 °C. For `CC1CCC(C(C)C)C(OC(=O)CCC(=O)OC2CC(C)CCC2C(C)C)C1` (single isomer, unassigned; (-)), the melting point was in the range of 61 to 62 °C.

The compound `Cc1c(S(=O)(=O)c2ccc(=O)[nH]n2)oc2cccc(Cl)c12` returned a melting point of 232 to 233 °C.

`O=C1N(N2CCCCC2)c2ccccc2C1(Cc1ccncc1)Cc1ccncc1` registered a melting point of 140 to 143 °C.

For `CC(=O)Nc1cccc(NC(=O)Cc2ccc(-n3c(-c4cccnc4N)nc4ccc(-c5cccnc5)nc43)cc2)c1`, the melting point was in the range of 142 to 144 °C.

For the compound `COc1ccc(C2(C)CCc3cc(OC)ccc3C2CCCCCCO)cc1` (centres undefined), the melting point lay in the range of 76 to 83 °C. As to `NS(=O)(=O)c1ccccc1N1CCCC1`, the melting point amounted to 78 °C. As to `O=C(NO)c1ccc2c(c1)CN(C(=O)OCc1cccnc1)C2`, the melting point was in the range of 196 to 199 °C. Compound `CC(C)=CCCC(C)=CCS(=O)c1ccc2ccccc2c1` (centres undefined) yielded a melting point of 74 to 76 °C. `NCC1Cc2cccc(-c3ccc4ccccc4c3)c2O1` (centres undefined) registered a melting point of 135 to 140 °C.

On to `CCn1c(C(O)(C(C)C)C(C)C)nc(-c2ccncc2)c1-c1ccc(Cl)cc1`, for which the melting point fell in the range of 221 to 223 °C. Regarding `Nc1cc(-c2nnc(SCc3ccc(F)cc3)o2)ccn1`, the melting point fell in the range of 200 to 201 °C. On to `O=C(O)c1c(Cl)cc(Cl)nc1Cl`, for which the melting point was 138 to 141 °C. For the compound `Cc1nn(-c2ccccn2)c2[nH]c3ccc(C(=O)O)cc3c(=O)c12`, the melting point is more than 300 °C. With `COc1ccccc1NC(=O)Nc1nc(NCCC(=O)O)nc(Nc2ccccc2-c2ccccc2)n1` the figure was 196 to 205 °C; with `CCC(=NNC(=O)c1cccc(C(F)(F)F)c1)c1cccnc1`, 119 °C. As to `CC(=O)Nc1c(O)cc(C(=O)O)cc1[N+](=O)[O-]`, the melting point was 215 to 220 °C.

In turn, `CC(Oc1ncn(-c2ccc(Br)cc2)n1)C(=O)O` (centres undefined) yielded a melting point of 195 to 197 °C. As to `CCCc1ncc(CN2CCN(c3ccccc3OC)CC2)c(N)n1`, the melting point amounted to 130 °C. For the compound `CC(=O)C(=Cc1cccc([N+](=O)[O-])c1)C(=O)OCCCl`, the melting point fell in the range of 95 to 97 °C.

For the compound `CN(C)C(=O)Cc1c(-c2ccc(Cl)cc2)nn2cccnc12`, the melting point lay within 174 to 176 °C.

Take `CCOC(=O)c1ccc(NC(=O)C2Cc3cc(SC)ccc3C(=O)CS2)cc1` (centres undefined): the melting point lay within 236 to 237 °C. With `CCc1c(CNS(=O)(=O)c2cccc(Cl)c2)nn(-c2ccc(Cl)cc2Cl)c1-c1ccc(Br)cc1`, the melting point stood at 169 °C. As for `O=C(O)c1ccc(C(=O)Nc2cccc(Nc3nc(-c4cccnc4)cs3)c2)cc1`, the melting point was 299 °C. For `CCCC1CCC(C#Cc2ccc(OCC)c(F)c2F)CC1` (centres undefined), the melting point is 64 °C. In turn, `CCOC(=O)c1sc(SC)c2c1CCc1cn(C)nc1-2` came in with a melting point of 193 to 194 °C. The compound `Cc1cc(C)c(C(C#N)=CO)c(C)c1` returned a melting point of 124 to 126 °C.

Compound `NC(CCNc1ccc(C(O)(C(F)(F)F)C(F)(F)F)cc1)c1ccc(F)cc1` (centres undefined) displayed a melting point of 136 to 137 °C. `Cc1n[nH]c(-c2ccncc2)c1-c1ccccc1` returned a melting point of 164 to 165 °C. Take `CCCCCCOc1ccc(CCCCCCCCC(=O)O)cc1`: the melting point was 79 to 81 °C. With `CC1CC2C3CCC4=CC(=O)CCC4(C)C3=CCC2(C)C1(O)C(=O)CO` (centres undefined) the figure was 167 to 168 °C; with `O=P(O)(O)CSc1nc2cc(Cl)c(C#Cc3ccccc3)cc2[nH]1`, 210 to 215 °C. Compound `O=C(NNc1nc(C(F)(F)F)nc(-c2ccncc2)c1-c1ccc(F)cc1)C(F)(F)F` showed a melting point of 240 to 242 °C. `CN1CC2CN(C)CC(C1)C2OC(=O)c1ccccc1` (centres undefined) came in with a melting point of 100 to 102 °C. Next, `COc1cc(Nc2nc3cccc(-c4cccc(CN)c4)c3o2)cc(OC)c1OC`: 145 to 150 °C; `O=C(O)c1cccc(-c2cccc(CC(=O)N(Cc3ccccc3)C3c4ccccc4CCC3Cc3ccccc3)c2)c1` (centres undefined): 171 to 172 °C; `CC(C)c1nc2c(N)nc3ccccc3c2n1CCOc1ccccc1`: 229 to 231 °C. For `CC(C)(C)C1=CC(=Cc2cccc([N+](=O)[O-])c2)C=C(C(C)(C)C)C1=O`, the melting point was determined as 118 °C. Next, `CON=C(C(=O)Nc1ccc(C(=O)O)cc1)c1ccc2c(c1)C(C)(C)CCC2(C)C`: 208 to 209 °C; `CCO/C(=C\c1ccc(OCCc2ccc(OS(C)(=O)=O)cc2)c(OC)c1)C(=O)O`: 147 °C. Next, `CC1=NC(=Cc2ccc(C#N)cc2)C(=O)O1`: 192 to 193 °C; `OC(CNCCCc1ccccc1)COc1cccc2[nH]ncc12` (centres undefined): 122 to 124 °C.

Compound `O=C(CNc1ccc2[nH]c(=O)[nH]c2c1)N1CCC(Cc2ccccc2)CC1` came in with a melting point of 237 to 238 °C. Next, `NC(=O)C=Cc1cccc(Cl)c1`: 180 °C. The compound `CC(NC(=O)Cc1cc(F)cc(F)c1)C(=O)NC1C(=O)N(C)Cc2ccccc21` (centres undefined) displayed a melting point of 174 to 175 °C.

`Cc1ccc(F)c(-c2cc(Nc3ccnc4cn(CC(O)CO)nc34)ccn2)n1` (centres undefined): the melting point fell in the range of 182 to 184 °C.

The record behind these values is a melting point compilation (Tetko et al.; mined from patent text by program, amines drawn as free bases though some values may be those of a salt).
